Consider 10 compounds from patent publication US8222247B2, “Modulators of glucocorticoid receptor, AP-1, and/or NF-kappabeta activity and use thereof” (Bristol-Myers Squibb Company, priority 2006, dated 2012).

The assay has as its system AP-1 induced transcriptional activity. Briefly: Cellular Transrepressional Assay (AP-1 luciferase reporter in A549 cell, PMA activated). The conditions noted are these: pAP-1-Luc; for Emax / AP-1 Max % inh (Cellular Transrepression Assay): maximum inhibition, PMA; for Emax: read-out: AP-1 Max % inh (Cellular Transrepression Assay); for EC50: 10 ng/ml PMA, 7 hours, read-out: AP-1 EC50, nM (Cellular Transrepression Assay). Type of assay: cell-based. The method, then: Cellular Transrepressional Assay
To measure the ability of test molecules to inhibit AP-1 induced transcriptional activity we utilized an A549 cell which was stably transfected with a plasmid containing 7×AP-1 DNA binding sites (pAP-1-Luc plasmid, Stratagene Co. La Jolla, Calif.) followed by the gene for luciferase. Cells were activated with 10 ng/ml of phorbol myristic acid (PMA) plus or minus test molecules for 7 hours. After 7 hours a luciferase reagent was added to measure luciferase enzymatic activity in the cell. After a 10 minute incubation of luciferase reagent with cells, luminescence was measured in a TopCount luminescence counter. Repression of AP-1 activity was calculated as the percentage decrease in the signal induced by PMA alone. Test molecules were analyzed in the concentration range from 0.1 nM to 40 μM. EC50s were determined by using standard curve fitting methods such as Excel fit (Microsoft Co.). An EC50 is the test molecule concentration at which there is a 50% repression of the maximal inhibition of transcription, i.e. a 50% reduction of AP-1 activity.
In general terms: A reporter such as luciferase makes a cellular process visible.

Read-outs that look alike come from different tables or passages of the source.

For the compound `CC(C)(C(=O)Nc1nccs1)C(c1ccccc1)c1ccc(N2CCOCC2)nc1` (single isomer, unassigned) [Example 21, 2,2-Dimethyl-3-(6-(4-morpholinyl)-3-pyridinyl)-3-phenyl-N-1,3-thiazol-2-ylpropanamide], for the setting “Homo sapiens, A549, 7 h”, the Emax is 23.9% and the EC50 (commonly the concentration that produces a half-maximal response) came out at 40.5 nM.

Turning to `CC(C)(C(=O)Nc1nncs1)C(c1ccccc1)c1ccc(N2CCOCC2)nc1` (single isomer, unassigned) [Example 23, 2,2-Dimethyl-3-(6-(4-morpholinyl)-3-pyridinyl)-3-phenyl-N-1,3,4-thiadiazol-2-ylpropanamide], for the setting “Homo sapiens, A549, 7 h”, the Emax worked out at 29.4% and the concentration giving a half-maximal response (EC50) came to 142 nM.

Regarding `CCN(C)C(=O)c1ccc(-c2ccc(C(c3cccc(F)c3)C(C)C(=O)Nc3nncs3)s2)cc1` (single isomer, unassigned) [Example 98, N-ethyl-4-(5-(1-(3-fluorophenyl)-2-methyl-3-oxo-3-(1,3,4-thiadiazol-2-ylamino)propyl)-2-thienyl)-N-methylbenzamide], the EC50 came out at 15.8 nM. Moreover, for the setting “Homo sapiens, A549, 7 h”, the Emax came to 55.3%.

For the compound `CCN(C)C(=O)c1ccc(-c2ccc(C(c3cccc(F)c3)C(C)C(=O)Nc3nncs3)s2)cc1` (single isomer, unassigned) [Example 99, N-ethyl-4-(5-(1-(3-fluorophenyl)-2-methyl-3-oxo-3-(1,3,4-thiadiazol-2-ylamino)propyl)-2-thienyl)-N-methylbenzamide], the “AP-1 Max % inh (Cellular Transrepression Assay)” value (“AP-1 Max % inh” below) was 49.36 % inh and the EC50 was found to be 279 nM.

As to `CC(C(=O)Nc1nncs1)C(c1cccc(F)c1)c1ccc(-c2ccc(C(=O)N3CCOCC3)cc2)s1` (single isomer, unassigned) [Example 100, 3-(3-fluorophenyl)-2-methyl-3-(5-(4-(4-morpholinylcarbonyl)phenyl)-2-thienyl)-N-1,3,4-thiadiazol-2-ylpropanamide], the half-maximal effective concentration (EC50) came to 8.8 nM. Also, the Emax (Homo sapiens, A549, 7 h) is 50.6%.

For the compound `CC(C(=O)Nc1nncs1)C(c1cccc(F)c1)c1ccc(-c2ccc(C(=O)N3CCOCC3)cc2)s1` (single isomer, unassigned) [Example 101, 3-(3-fluorophenyl)-2-methyl-3-(5-(4-(4-morpholinylcarbonyl)phenyl)-2-thienyl)-N-1,3,4-thiadiazol-2-ylpropanamide], the “AP-1 Max % inh” value worked out at 51.00 % inh and the EC50 worked out at 576 nM.

With `CC(C(=O)Nc1nncs1)C(c1cccc(F)c1)c1ccc(-c2ccc(C(=O)N(C)C)cc2)s1` (single isomer, unassigned) [Example 102, 4-(5-(1-(3-fluorophenyl)-2-methyl-3-oxo-3-(1,3,4-thiadiazol-2-ylamino)propyl)-2-thienyl)-N,N-dimethylbenzamide], the concentration giving a half-maximal response (EC50) is 10.6 nM. In addition, under “Homo sapiens, A549, 7 h”, the Emax came to 52.6%.

As to `CC(C(=O)Nc1nncs1)C(c1cccc(F)c1)c1ccc(-c2ccc(C(=O)N(C)C)cc2)s1` (single isomer, unassigned) [Example 103, 4-(5-(1-(3-fluorophenyl)-2-methyl-3-oxo-3-(1,3,4-thiadiazol-2-ylamino)propyl)-2-thienyl)-N,N-dimethylbenzamide], the “AP-1 Max % inh” value was determined as 49.86 % inh and the EC50 was 879 nM.

With `CC(C(=O)Nc1nncs1)C(c1cccc(F)c1)c1ccc(-c2ccc(C(=O)N(C)C)c(Cl)c2)s1` (single isomer, unassigned) [Example 104, 2-chloro-4-(5-(1-(3-fluorophenyl)-2-methyl-3-oxo-3-(1,3,4-thiadiazol-2-ylamino)propyl)-2-thienyl)-N,N-dimethylbenzamide], the EC50 was determined as 38.7 nM. In addition, where the note is “Homo sapiens, A549, 7 h”, the Emax stood at 49.5%.

On to `CC(C(=O)Nc1nncs1)C(c1cccc(F)c1)c1ccc(-c2ccc(C(=O)N(C)C)c(Cl)c2)s1` (single isomer, unassigned) [Example 105, 2-chloro-4-(5-(1-(3-fluorophenyl)-2-methyl-3-oxo-3-(1,3,4-thiadiazol-2-ylamino)propyl)-2-thienyl)-N,N-dimethylbenzamide], for which the “AP-1 Max % inh” value came out at 48.50 % inh and the EC50 amounted to 446 nM.
